Measured values as given in patent EP4603105A1, “PHARMACEUTICAL COMPOSITION CONTAINING CYCLIC COMPOUND HAVING SELECTIVE KRAS INHIBITORY EFFECT AGAINST HRAS AND NRAS” (CHUGAI SEIYAKU KABUSHIKI KAISHA, priority 2022, dated 2024).

Experiments:
[1] = test system: human lung cancer strain NCI-H441; assay: NCI-H441 cell proliferation inhibitory activity (CellTiter-Glo, 4 days); type: cell-based; settings: NCI-H441 cells, 4 days, read-out: NCl-H441 IC50
How it was run: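 Step one: dispense the test compound in serial DMSO dilutions. Step three: add the reagent and measure […].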

[2] = molecular target: GDP-bound KRAS wild-type protein (Homo sapiens, UniProt P01116); assay: Binding to KRAS by surface plasmon resonance (SPR), dissociation constant KD; settings: 1:1 binding model
How it was run: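 SPR, 30°C: Avi-biotin RAS·GDP captured via Biotin CAPture (~100–300 RU); running buffer HBS pH 7.4, 1 mM DTT, 10 mM MgCl2, 0.01% Tween 20, 10 µM GDP, 4% DMSO. Single-cycle kinetics, 100 µL/min, 75 s injections; 1:1 model → KD.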

HRAS wild-type protein = HRAS wild-type protein (Homo sapiens, UniProt P01112); assay: Binding to HRAS by surface plasmon resonance (SPR), KD and KD ratio to KRAS; settings: ratio of KD for HRAS wild-type protein to KD for KRAS
How it was run: (§1)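 Captured GDP-RAS (~100–300 RU) was exposed to increasing compound concentrations, 75 s per step, in running buffer with 10 µM GDP, 10 mM MgCl2 and 4% DMSO at pH 7.4.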

[3] = molecular target: GDP-bound NRAS wild-type protein (Homo sapiens, UniProt P01111); assay: Binding to NRAS by surface plasmon resonance (SPR), KD and KD ratio to KRAS; settings: ratio of KD for GDP-bound NRAS wild-type protein to KD for KRAS
How it was run: as §1

Chain of GDP-bound KRAS wild-type protein (P01116 1-188 isoform P01116-2): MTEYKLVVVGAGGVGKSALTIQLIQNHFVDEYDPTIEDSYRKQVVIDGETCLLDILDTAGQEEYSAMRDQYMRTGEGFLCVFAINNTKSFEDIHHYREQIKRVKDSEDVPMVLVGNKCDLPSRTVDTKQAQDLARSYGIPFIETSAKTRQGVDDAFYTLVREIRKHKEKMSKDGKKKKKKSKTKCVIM
Chain of GDP-bound NRAS wild-type protein (P01111 whole entry): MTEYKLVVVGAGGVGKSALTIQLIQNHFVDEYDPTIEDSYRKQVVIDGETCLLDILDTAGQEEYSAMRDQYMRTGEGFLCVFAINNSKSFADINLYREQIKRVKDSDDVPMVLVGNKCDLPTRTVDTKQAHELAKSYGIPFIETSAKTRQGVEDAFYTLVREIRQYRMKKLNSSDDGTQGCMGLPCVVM
Chain of HRAS wild-type protein (P01112 whole entry): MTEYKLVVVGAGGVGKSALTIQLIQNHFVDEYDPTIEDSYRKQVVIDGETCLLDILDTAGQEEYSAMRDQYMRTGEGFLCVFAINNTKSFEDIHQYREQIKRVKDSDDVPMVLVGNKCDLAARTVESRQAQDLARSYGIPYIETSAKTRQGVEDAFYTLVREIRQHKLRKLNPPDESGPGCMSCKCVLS

## CCC[C@H]1C(=O)N[C@@H]([C@@H](C)CC)C(=O)N2CCC[C@H]2C(=O)N(C)[C@H]2C/C=C\CCN(C2=O)[C@@H](CC2CCCCC2)C(=O)N(C)CC(=O)N[C@@H](CCc2ccc(C(F)(F)F)c(OC)c2)C(=O)N2C[C@@H](C)C[C@H]2C(=O)N(C)C2(CCC2)C(=O)N(C)[C@@H](C2CCCC2)C(=O)N(C)[C@H](C(=O)N(C)C)CC(=O)N1C [PP2374]
[1]
  IC50: 67.2 nM
[2]
  Kd: 0.85 nM
HRAS wild-type protein
  HRAS /KRAS: A (a compound having 10 or more and less than 20 is denoted as A)
[3]
  NRAS /KRAS: A (a compound having 10 or more and less than 20 is denoted as A)

## CCOC[C@H]1C(=O)N[C@@H]([C@@H](C)CC)C(=O)N2CCC[C@H]2C(=O)N(C)[C@H]2C/C=C\CCN(C2=O)[C@@H](CC2CCCCC2)C(=O)N(C)CC(=O)N[C@@H](CCc2ccc(C(F)(F)F)c(OC)c2)C(=O)N2C[C@@H](C)C[C@H]2C(=O)N(C)C2(CCC2)C(=O)N(C)[C@@H](C2CCCC2)C(=O)N(C)[C@H](C(=O)N(C)C)CC(=O)N1C [PP2375]
[1]
  IC50: 172 nM
[2]
  Kd: 1.1 nM
HRAS wild-type protein
  HRAS /KRAS: B (a compound having 3 or more and less than 10 is denoted as B)
[3]
  NRAS /KRAS: A (a compound having 10 or more and less than 20 is denoted as A)

## CCC[C@H]1C(=O)N[C@@H]([C@@H](C)CC)C(=O)N(C2CC2)CC(=O)N(C)[C@H]2C/C=C\CCN(C2=O)[C@@H](CC2CCC(F)(F)CC2)C(=O)N(C)CC(=O)N[C@@H](CCc2ccc(C(F)(F)F)c(OC)c2)C(=O)N2C[C@@H](C)C[C@H]2C(=O)N(C)C2(CCC2)C(=O)N(C)[C@@H](C2CCCC2)C(=O)N(C)[C@H](C(=O)N(C)C)CC(=O)N1C [PP2378]
[1]
  IC50: 48.3 nM
[2]
  Kd: 0.88 nM
HRAS wild-type protein
  HRAS /KRAS: A (a compound having 10 or more and less than 20 is denoted as A)
[3]
  NRAS /KRAS: B (a compound having 3 or more and less than 10 is denoted as B)

## CCCOC[C@H]1C(=O)N[C@@H]([C@@H](C)CC)C(=O)N(C2CC2)CC(=O)N(C)[C@H]2C/C=C\CCN(C2=O)[C@@H](CC2CCC(F)(F)CC2)C(=O)N(C)CC(=O)N[C@@H](CCc2ccc(C(F)(F)F)c(OC)c2)C(=O)N2C[C@@H](C)C[C@H]2C(=O)N(C)C2(CCC2)C(=O)N(C)[C@@H](C2CCCC2)C(=O)N(C)[C@H](C(=O)N(C)C)CC(=O)N1C [PP2379]
[1]
  IC50: 2.2 nM
[2]
  Kd: 0.76 nM
HRAS wild-type protein
  HRAS /KRAS: A (a compound having 10 or more and less than 20 is denoted as A)
[3]
  NRAS /KRAS: A (a compound having 10 or more and less than 20 is denoted as A)

## CCC[C@H]1C(=O)N[C@@H]([C@@H](C)CC)C(=O)N2CCC[C@H]2C(=O)N(C)[C@H]2C/C=C\CCN(C2=O)[C@@H](CC2CCC(F)(F)CC2)C(=O)N(C)CC(=O)N[C@@H](CCc2ccc(C(F)(F)F)c(OC)c2)C(=O)N2C[C@@H](C)C[C@H]2C(=O)N(C)C2(CCC2)C(=O)N(C)[C@@H](C2CCCC2)C(=O)N(C)[C@H](C(=O)N(C)C)CC(=O)N1C [PP2380]
[1]
  IC50: 2.1 nM
[2]
  Kd: 0.85 nM
HRAS wild-type protein
  HRAS /KRAS: A (a compound having 10 or more and less than 20 is denoted as A)
[3]
  NRAS /KRAS: A (a compound having 10 or more and less than 20 is denoted as A)

## CCCOC[C@H]1C(=O)N[C@@H]([C@@H](C)CC)C(=O)N2CCC[C@H]2C(=O)N(C)[C@H]2C/C=C\CCN(C2=O)[C@@H](CC2CCC(F)(F)CC2)C(=O)N(C)CC(=O)N[C@@H](CCc2ccc(C(F)(F)F)c(OC)c2)C(=O)N2C[C@@H](C)C[C@H]2C(=O)N(C)C2(CCC2)C(=O)N(C)[C@@H](C2CCCC2)C(=O)N(C)[C@H](C(=O)N(C)C)CC(=O)N1C [PP2381]
[1]
  IC50: 3.2 nM
[2]
  Kd: 0.93 nM
HRAS wild-type protein
  HRAS /KRAS: A (a compound having 10 or more and less than 20 is denoted as A)
[3]
  NRAS /KRAS: A (a compound having 10 or more and less than 20 is denoted as A)

## CCC[C@H]1C(=O)N[C@@H]([C@@H](C)CC)C(=O)N(C)CC(=O)N(C)[C@H]2C/C=C\CCN(C2=O)[C@@H](Cc2ccc(C(F)(F)F)cc2)C(=O)N(C)CC(=O)N[C@@H](CCc2ccc(C(F)(F)F)c(OC)c2)C(=O)N2C[C@H](OCC)C[C@H]2C(=O)N(C)C2(CCC2)C(=O)N(C)[C@@H](C(CC)CC)C(=O)N(C)[C@H](C(=O)N(C)C)CC(=O)N1C [PP2382]
[1]
  IC50: 4.6 nM
[2]
  Kd: 0.12 nM
HRAS wild-type protein
  HRAS /KRAS: A (a compound having 10 or more and less than 20 is denoted as A)
[3]
  NRAS /KRAS: A (a compound having 10 or more and less than 20 is denoted as A)

## CCOC[C@H]1C(=O)N[C@@H]([C@@H](C)CC)C(=O)N(C)CC(=O)N(C)[C@H]2C/C=C\CCN(C2=O)[C@@H](Cc2ccc(C(F)(F)F)cc2)C(=O)N(C)CC(=O)N[C@@H](CCc2ccc(C(F)(F)F)c(OC)c2)C(=O)N2C[C@H](OCC)C[C@H]2C(=O)N(C)C2(CCC2)C(=O)N(C)[C@@H](C(CC)CC)C(=O)N(C)[C@H](C(=O)N(C)C)CC(=O)N1C [PP2383]
[1]
  IC50: 5.2 nM
[2]
  Kd: 0.12 nM
HRAS wild-type protein
  HRAS /KRAS: A (a compound having 10 or more and less than 20 is denoted as A)
[3]
  NRAS /KRAS: A (a compound having 10 or more and less than 20 is denoted as A)

## CC[C@H](C)[C@@H]1NC(=O)[C@H](COC)N(C)C(=O)C[C@@H](C(=O)N(C)C)N(C)C(=O)[C@H](C2CCCC2)N(C)C(=O)C2(CC(C)(C)C2)NC(=O)[C@@H]2C[C@H](C)CN2C(=O)[C@H](CCc2ccc(C(F)(F)F)c(OC)c2)NC(=O)CN(C)C(=O)[C@H](Cc2ccc(C)cc2)N2CC/C=C\C[C@@H](C2=O)N(C)C(=O)[C@@H]2C[C@H](C)CN2C1=O [PP2386]
[1]
  IC50: 28.1 nM
[2]
  Kd: 1.2 nM
HRAS wild-type protein
  HRAS /KRAS: B (a compound having 3 or more and less than 10 is denoted as B)
[3]
  NRAS /KRAS: A (a compound having 10 or more and less than 20 is denoted as A)

## CC[C@H](C)[C@@H]1NC(=O)[C@H](COC)N(C)C(=O)C[C@@H](C(=O)N(C)C)N(C)C(=O)[C@H](C2CCCC2)N(C)C(=O)C2(CC(C)(C)C2)NC(=O)[C@@H]2C[C@@H](C)CN2C(=O)[C@H](CCc2ccc(C(F)(F)F)c(OC)c2)NC(=O)CN(C)C(=O)[C@H](Cc2ccc(C)cc2)N2CC/C=C\C[C@@H](C2=O)N(C)C(=O)CN(C)C1=O [PP2387]
[1]
  IC50: 16.5 nM
[2]
  Kd: 0.11 nM
HRAS wild-type protein
  HRAS /KRAS: A (a compound having 10 or more and less than 20 is denoted as A)
[3]
  NRAS /KRAS: A (a compound having 10 or more and less than 20 is denoted as A)

## CCO[C@@H]1C[C@H]2C(=O)NC3(CC(C)(C)C3)C(=O)N(C)[C@@H](C3CCCC3)C(=O)N(C)[C@H](C(=O)N(C)C)CC(=O)N(C)[C@@H](COC)C(=O)N[C@@H]([C@@H](C)CC)C(=O)N(C)CC(=O)N(C)[C@H]3C/C=C\CCN(C3=O)[C@@H](Cc3ccc(C)cc3)C(=O)N(C)CC(=O)N[C@@H](CCc3ccc(C(F)(F)F)c(Cl)c3)C(=O)N2C1 [PP2389]
[1]
  IC50: 21.3 nM
[2]
  Kd: 0.079 nM
HRAS wild-type protein
  HRAS /KRAS: B (a compound having 3 or more and less than 10 is denoted as B)
[3]
  NRAS /KRAS: A (a compound having 10 or more and less than 20 is denoted as A)

## CC[C@H](C)[C@@H]1NC(=O)[C@H](COC)N(C)C(=O)C[C@@H](C(=O)N(C)C)N(C)C(=O)[C@H](C2CCCC2)N(C)C(=O)C2(CC(C)(C)C2)NC(=O)[C@@H]2C[C@H](C)CN2C(=O)[C@H](CCc2ccc(C(F)(F)F)c(OC)c2)NC(=O)CN(C)C(=O)[C@H](Cc2ccc(C)cc2)N2CC/C=C\C[C@@H](C2=O)N(C)C(=O)[C@@H]2C[C@H](OC)CN2C1=O [PP2390]
[1]
  IC50: 96.7 nM
[2]
  Kd: 0.28 nM
HRAS wild-type protein
  HRAS /KRAS: B (a compound having 3 or more and less than 10 is denoted as B)
[3]
  NRAS /KRAS: A (a compound having 10 or more and less than 20 is denoted as A)

## CCOC[C@H]1C(=O)N[C@@H]([C@@H](C)CC)C(=O)N(C)CC(=O)N(C)[C@H]2C/C=C\CCN(C2=O)[C@@H](Cc2ccc(C)cc2)C(=O)N(C)CC(=O)N[C@@H](CCc2ccc(C(F)(F)F)c(OC)c2)C(=O)N2C[C@H](C)C[C@H]2C(=O)NC2(CC(C)(C)C2)C(=O)N(C)[C@@H](C2CCCC2)C(=O)N(C)[C@H](C(=O)N(C)C)CC(=O)N1C [PP2393]
[1]
  IC50: 28.2 nM
[2]
  Kd: 0.12 nM
HRAS wild-type protein
  HRAS /KRAS: A (a compound having 10 or more and less than 20 is denoted as A)
[3]
  NRAS /KRAS: A (a compound having 10 or more and less than 20 is denoted as A)

## CCOC[C@H]1C(=O)N[C@@H]([C@@H](C)CC)C(=O)N(C)CC(=O)N(C)[C@H]2C/C=C\CCN(C2=O)[C@@H](Cc2ccc(C)cc2)C(=O)N(C)CC(=O)N[C@@H](CCc2ccc(C(F)(F)F)c(Cl)c2)C(=O)N2C[C@@H](C)C[C@H]2C(=O)NC2(CC(C)(C)C2)C(=O)N(C)[C@@H](C2CCCC2)C(=O)N(C)[C@H](C(=O)N(C)C)CC(=O)N1C [PP2394]
[1]
  IC50: 8.3 nM
[2]
  Kd: 0.12 nM
HRAS wild-type protein
  HRAS /KRAS: B (a compound having 3 or more and less than 10 is denoted as B)
[3]
  NRAS /KRAS: A (a compound having 10 or more and less than 20 is denoted as A)

## CCOC[C@H]1C(=O)N[C@@H]([C@@H](C)CC)C(=O)N(C)CC(=O)N(C)[C@H]2C/C=C\CCN(C2=O)[C@@H](Cc2ccc(C)cc2)C(=O)N(C)CC(=O)N[C@@H](CCc2ccc(C(F)(F)F)c(Cl)c2)C(=O)N2C[C@H](OCC)C[C@H]2C(=O)NC2(CC(C)(C)C2)C(=O)N(C)[C@@H](C2CCCC2)C(=O)N(C)[C@H](C(=O)N(C)C)CC(=O)N1C [PP2395]
[1]
  IC50: 6.3 nM
[2]
  Kd: 0.072 nM
HRAS wild-type protein
  HRAS /KRAS: B (a compound having 3 or more and less than 10 is denoted as B)
[3]
  NRAS /KRAS: A (a compound having 10 or more and less than 20 is denoted as A)
